Data: publication PMC4503722, “Novel Phenotypic Outcomes Identified for a Public Collection of Approved Drugs from a Publicly Accessible Panel of Assays” (PLoS ONE, 2015)
Where two headings read alike, the source gives them in different places.

Tests used:
[1] = tested on: ECFC/ADSC co-culture cell nuclei number
[2] = tested on: endothelial tube formation in co-cultures of ECFCs and ADSCs treated with VEGF; test: cells; format: cell-based, human
[3] = tested on: STC-1 cell line; format: cell-based, mouse; conditions: for IC50/EC50, mSTC-1 GLP1 Secretion (assay number 13): concentration response
[4] = tested on: INS-1E cells; test: cells; format: cell-based, rat;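 also: secreted insulin quantified by homogeneous immunoassay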
[5] = tested on: NCI-H716 cells; test: cells; format: cell-based, Human; conditions: for IC50/EC50, hNCI-H716 GLP1 Secretion (assay number 12): concentration response
[6] = target: T1, hKDR (Homo sapiens, UniProt P35968); test: Cerep LANCE kinase assay hKDR (S1 assay 32); format: biochemical; conditions: assay number 32
T1 construct: purchased Cerep (LANCE kinase assay platform, contract assay)
T1 sequence (P35968 20-1356): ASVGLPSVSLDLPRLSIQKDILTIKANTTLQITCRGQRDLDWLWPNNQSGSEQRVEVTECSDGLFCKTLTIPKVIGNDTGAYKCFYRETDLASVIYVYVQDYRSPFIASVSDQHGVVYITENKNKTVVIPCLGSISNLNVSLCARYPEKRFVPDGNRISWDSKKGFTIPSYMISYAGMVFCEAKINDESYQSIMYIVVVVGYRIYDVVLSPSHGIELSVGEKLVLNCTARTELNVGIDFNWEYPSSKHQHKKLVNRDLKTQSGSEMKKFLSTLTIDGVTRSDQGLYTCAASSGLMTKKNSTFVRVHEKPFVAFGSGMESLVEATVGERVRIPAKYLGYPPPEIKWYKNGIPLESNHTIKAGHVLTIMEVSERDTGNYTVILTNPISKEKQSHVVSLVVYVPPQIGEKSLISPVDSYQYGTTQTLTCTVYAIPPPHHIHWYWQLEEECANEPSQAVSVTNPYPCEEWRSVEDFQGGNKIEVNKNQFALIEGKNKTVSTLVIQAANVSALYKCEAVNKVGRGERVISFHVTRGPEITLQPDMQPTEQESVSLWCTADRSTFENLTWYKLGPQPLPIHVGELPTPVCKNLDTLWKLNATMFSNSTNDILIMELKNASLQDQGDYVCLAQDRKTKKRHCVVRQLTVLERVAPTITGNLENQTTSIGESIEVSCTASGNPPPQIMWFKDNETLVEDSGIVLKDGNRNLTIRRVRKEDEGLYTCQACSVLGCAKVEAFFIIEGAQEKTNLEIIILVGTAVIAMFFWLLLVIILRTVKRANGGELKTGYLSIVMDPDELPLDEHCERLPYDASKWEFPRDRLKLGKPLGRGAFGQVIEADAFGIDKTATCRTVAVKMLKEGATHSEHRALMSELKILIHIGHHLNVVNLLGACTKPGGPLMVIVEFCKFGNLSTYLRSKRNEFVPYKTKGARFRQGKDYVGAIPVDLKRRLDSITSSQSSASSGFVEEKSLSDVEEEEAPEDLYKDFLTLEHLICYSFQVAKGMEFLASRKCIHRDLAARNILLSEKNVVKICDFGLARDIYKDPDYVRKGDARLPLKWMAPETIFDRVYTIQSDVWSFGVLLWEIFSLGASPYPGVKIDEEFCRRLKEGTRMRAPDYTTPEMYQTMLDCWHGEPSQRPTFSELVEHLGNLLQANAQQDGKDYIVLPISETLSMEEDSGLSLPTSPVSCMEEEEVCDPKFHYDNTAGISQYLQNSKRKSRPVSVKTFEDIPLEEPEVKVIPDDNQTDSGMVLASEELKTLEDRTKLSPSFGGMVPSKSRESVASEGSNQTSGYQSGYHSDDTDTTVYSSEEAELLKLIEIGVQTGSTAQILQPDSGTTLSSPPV

[7] = target: T2, hGSK3b (Homo sapiens, UniProt P49841); test: Cerep LANCE kinase assay hGSK3b (S1 assay 34); format: biochemical; conditions: assay number 34
T2 construct: purchased Cerep (LANCE kinase assay platform, contract assay)
T2 sequence (P49841 whole entry): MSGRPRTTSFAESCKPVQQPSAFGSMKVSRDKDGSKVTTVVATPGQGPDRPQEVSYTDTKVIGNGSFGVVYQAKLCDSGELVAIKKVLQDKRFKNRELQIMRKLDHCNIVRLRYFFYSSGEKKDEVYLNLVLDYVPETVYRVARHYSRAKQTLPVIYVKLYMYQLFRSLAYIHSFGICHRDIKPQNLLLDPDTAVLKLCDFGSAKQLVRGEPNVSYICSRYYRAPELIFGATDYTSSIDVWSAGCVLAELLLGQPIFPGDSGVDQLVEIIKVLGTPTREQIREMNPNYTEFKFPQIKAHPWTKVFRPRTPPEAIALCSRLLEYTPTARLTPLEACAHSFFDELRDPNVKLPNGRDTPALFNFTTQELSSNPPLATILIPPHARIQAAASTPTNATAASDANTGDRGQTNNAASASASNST

[8] = target: T3, hJAK2 (Homo sapiens, UniProt O60674); test: Cerep LANCE kinase assay hJAK2 (S1 assay 33); format: biochemical; conditions: assay number 33
T3 construct: purchased Cerep (LANCE kinase assay platform, contract assay)
T3 sequence (O60674 whole entry): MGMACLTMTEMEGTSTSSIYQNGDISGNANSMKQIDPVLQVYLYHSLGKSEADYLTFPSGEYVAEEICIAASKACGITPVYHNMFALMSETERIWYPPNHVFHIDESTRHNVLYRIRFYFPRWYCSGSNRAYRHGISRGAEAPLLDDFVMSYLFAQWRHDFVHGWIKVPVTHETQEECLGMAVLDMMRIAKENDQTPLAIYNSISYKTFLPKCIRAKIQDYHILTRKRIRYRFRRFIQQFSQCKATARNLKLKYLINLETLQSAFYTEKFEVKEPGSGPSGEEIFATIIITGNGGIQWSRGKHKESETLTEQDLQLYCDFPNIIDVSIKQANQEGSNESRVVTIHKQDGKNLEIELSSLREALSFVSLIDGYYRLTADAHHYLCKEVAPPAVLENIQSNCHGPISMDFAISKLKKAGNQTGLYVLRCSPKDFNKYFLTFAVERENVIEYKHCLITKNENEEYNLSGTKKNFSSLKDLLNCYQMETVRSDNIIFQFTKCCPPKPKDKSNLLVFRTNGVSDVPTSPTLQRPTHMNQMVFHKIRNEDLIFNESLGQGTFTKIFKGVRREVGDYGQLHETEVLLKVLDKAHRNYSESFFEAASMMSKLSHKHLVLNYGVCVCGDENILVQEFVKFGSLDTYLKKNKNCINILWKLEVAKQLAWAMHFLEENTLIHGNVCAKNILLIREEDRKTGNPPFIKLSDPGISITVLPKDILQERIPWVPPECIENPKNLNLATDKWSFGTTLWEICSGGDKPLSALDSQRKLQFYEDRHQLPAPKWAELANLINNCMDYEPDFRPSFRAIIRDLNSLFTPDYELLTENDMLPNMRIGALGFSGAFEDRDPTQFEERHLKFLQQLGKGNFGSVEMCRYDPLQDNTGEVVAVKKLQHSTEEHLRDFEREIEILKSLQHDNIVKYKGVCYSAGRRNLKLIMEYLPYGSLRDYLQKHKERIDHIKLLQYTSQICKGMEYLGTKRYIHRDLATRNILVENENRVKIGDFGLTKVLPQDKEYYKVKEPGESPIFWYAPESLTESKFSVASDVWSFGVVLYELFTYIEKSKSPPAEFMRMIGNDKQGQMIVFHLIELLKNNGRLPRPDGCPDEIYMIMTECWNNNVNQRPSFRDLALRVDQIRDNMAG

[9] = target: T4, hFLT3 (Homo sapiens, UniProt P36888); test: Cerep LANCE kinase assay hFLT3 (S1 assay 35); format: biochemical; conditions: assay number 35
T4 construct: purchased Cerep (LANCE kinase assay platform, contract assay)
T4 sequence (P36888 27-993): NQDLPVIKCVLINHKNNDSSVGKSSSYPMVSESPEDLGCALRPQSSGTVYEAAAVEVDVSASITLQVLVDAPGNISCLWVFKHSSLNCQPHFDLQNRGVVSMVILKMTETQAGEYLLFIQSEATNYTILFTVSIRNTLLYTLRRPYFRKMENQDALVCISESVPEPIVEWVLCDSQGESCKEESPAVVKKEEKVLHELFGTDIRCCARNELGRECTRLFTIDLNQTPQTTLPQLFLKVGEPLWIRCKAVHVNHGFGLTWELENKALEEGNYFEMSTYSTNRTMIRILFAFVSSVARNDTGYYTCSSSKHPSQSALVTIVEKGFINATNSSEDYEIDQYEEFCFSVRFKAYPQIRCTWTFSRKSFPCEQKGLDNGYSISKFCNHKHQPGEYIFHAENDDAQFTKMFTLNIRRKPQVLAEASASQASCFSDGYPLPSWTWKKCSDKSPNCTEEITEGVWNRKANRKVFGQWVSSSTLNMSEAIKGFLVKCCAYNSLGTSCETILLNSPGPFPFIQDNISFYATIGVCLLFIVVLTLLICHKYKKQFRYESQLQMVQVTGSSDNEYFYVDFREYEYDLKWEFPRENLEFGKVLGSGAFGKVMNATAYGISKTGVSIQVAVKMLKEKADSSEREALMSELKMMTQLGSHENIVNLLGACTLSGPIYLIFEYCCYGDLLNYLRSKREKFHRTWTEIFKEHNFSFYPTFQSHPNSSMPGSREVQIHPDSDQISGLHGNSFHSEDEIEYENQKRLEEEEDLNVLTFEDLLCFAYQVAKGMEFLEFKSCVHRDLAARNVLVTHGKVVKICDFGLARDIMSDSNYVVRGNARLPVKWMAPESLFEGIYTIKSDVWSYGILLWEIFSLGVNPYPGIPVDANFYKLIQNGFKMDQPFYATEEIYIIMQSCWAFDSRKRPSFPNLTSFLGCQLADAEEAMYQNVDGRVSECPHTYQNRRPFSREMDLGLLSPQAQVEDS

[10] = tested on: HeLa cells; test: cells; format: cell-based
[11] = target: T5, hp70S6K1 (RPS6KB1) (Homo sapiens, UniProt P23443); test: Cerep LANCE kinase assay hp70S6K1 (S1 assay 31); format: biochemical; conditions: assay number 31
T5 construct: purchased Cerep (LANCE kinase assay platform, contract assay)
T5 sequence (P23443 whole entry): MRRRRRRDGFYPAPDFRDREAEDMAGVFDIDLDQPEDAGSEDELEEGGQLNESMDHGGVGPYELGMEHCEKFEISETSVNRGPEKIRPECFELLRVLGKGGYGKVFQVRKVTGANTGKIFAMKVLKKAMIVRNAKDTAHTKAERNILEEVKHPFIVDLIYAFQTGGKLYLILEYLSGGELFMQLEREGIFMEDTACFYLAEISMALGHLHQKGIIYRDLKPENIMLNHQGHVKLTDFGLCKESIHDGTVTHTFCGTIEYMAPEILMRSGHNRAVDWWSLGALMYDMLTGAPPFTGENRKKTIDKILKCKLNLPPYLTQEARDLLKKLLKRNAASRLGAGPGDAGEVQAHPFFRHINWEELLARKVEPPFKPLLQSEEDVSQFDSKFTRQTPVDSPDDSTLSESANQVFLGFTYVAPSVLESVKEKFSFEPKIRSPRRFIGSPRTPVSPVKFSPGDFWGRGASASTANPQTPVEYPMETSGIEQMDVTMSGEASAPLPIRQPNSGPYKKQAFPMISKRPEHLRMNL

[12] = tested on: Colo320; test: cells; format: cell-based
[13] = tested on: SW480; test: cells; format: cell-based
[14] = tested on: HT-29; test: cells; format: cell-based
[15] = tested on: HCT116; test: cells; format: cell-based
[16] = tested on: SNU-C1; test: cells; format: cell-based
[17] = tested on: DLD-1; test: cells; format: cell-based
[18] = tested on: HCT116 cells treated with a GSK3β inhibitor; test: cells; format: cell-based
[19] = tested on: RKO; test: cells; format: cell-based

Compound | VEGF_ADSC\ECFC Angio Hoechst NucArea IC50/EC50 [1] [µM] | VEGF_ADSC\ECFC Angio CD31 TubeArea IC50/EC50 [2] [µM] | mSTC-1 GLP1 Secretion IC50/EC50 ([3]; assay number 13) [µM] | 5mMGluc_INS1E SecretionMod IC50/EC50 ([4]; assay number 8, 5 mM glucose) [µM] | hNCI-H716 GLP1 Secretion IC50/EC50 ([5]; assay number 12) [µM] | other results
Cc1ccc(O)cc1 [NCGC00091519-09] | > 10 | > 10 | > 40 | > 33.33 | > 40 | –
CC(C)(C)CC(C)(C)c1ccc(O)c(Cc2ccc(Cl)cc2Cl)c1 [NCGC00095016-05] | – | – | 0.5436 | > 33.33 | 9.073 | –
CCCCCN=C(N)N/N=C/c1c[nH]c2ccc(OC)cc12 [NCGC00095192-05] | 7.175 | 3.1318 | > 40 | 16.8442 | 10.8586 | –
O=C1Nc2ccc(Cl)cc2[C@@](C#CC2CC2)(C(F)(F)F)O1 [NCGC00159337-04] | – | – | 2.476 | 3.8674 | 21.246 | –
Cc1cc(OI)c(C(C)C)cc1-c1cc(C(C)C)c(OI)cc1C [NCGC00159504-04] | – | – | – | – | – | IC50/EC50, VEGF_ADSC\ECFC Angio Hoechst NucArea (assay number 3) [1]: > 10 µM; IC50/EC50, VEGF_ADSC\ECFC Angio CD31 TubeArea (assay number 2) [2]: > 10 µM; IC50/EC50, mSTC-1 GLP1 Secretion (assay number 13) [3]: 15.1081 µM; IC50/EC50, 5mMGluc_INS1E SecretionMod (assay number 8) ([4]; 5 mM glucose): > 33.33 µM; IC50/EC50, hNCI-H716 GLP1 Secretion (assay number 12) [5]: > 40 µM
FC(F)(F)C(F)(F)C(F)(F)C(F)(F)C(F)(F)C(F)(F)C(F)(F)C(F)(F)Br [NCGC00166217-02] | – | – | > 40 | > 33.33 | > 40 | –
C/C(=C(\CCOC(=O)C(C)C)SS/C(CCOC(=O)C(C)C)=C(/C)N(C=O)Cc1cnc(C)nc1N)N(C=O)Cc1cnc(C)nc1N [NCGC00167456-02] | – | – | > 40 | > 33.33 | 2.3879 | –
CCOC(=O)c1ccccc1O [NCGC00181161-03] | – | – | – | – | – | IC50/EC50, mSTC-1 GLP1 Secretion (assay number 13) [3]: > 40 µM; IC50/EC50, 5mMGluc_INS1E SecretionMod (assay number 8) ([4]; 5 mM glucose): > 33.33 µM; IC50/EC50, hNCI-H716 GLP1 Secretion (assay number 12) [5]: > 40 µM
Cc1cc(O)c2c(O)c3c(O)cccc3cc2c1 [NCGC00181774-02] | – | – | – | – | – | IC50/EC50, VEGF_ADSC\ECFC Angio Hoechst NucArea (assay number 3) [1]: > 10 µM; IC50/EC50, VEGF_ADSC\ECFC Angio CD31 TubeArea (assay number 2) [2]: > 10 µM; IC50/EC50, mSTC-1 GLP1 Secretion (assay number 13) [3]: 11.3101 µM; IC50/EC50, 5mMGluc_INS1E SecretionMod (assay number 8) ([4]; 5 mM glucose): > 33.33 µM; IC50/EC50, hNCI-H716 GLP1 Secretion (assay number 12) [5]: > 20 µM
CCCCCCCCCCCCCCCCCCNC(=O)OC1CCN(C(=O)OC[C@H](COC(=O)N(Cc2cccc[n+]2CC)C(=O)c2ccccc2OC)OC)CC1.[Cl-] [NCGC00183020-01] | > 10 | 1.4957 | 13.8183 | 21.7337 | 9.522 | hKDR LANCE IC50/EC50 [6]: > 20 µM; hGSK3b LANCE IC50/EC50 [7]: > 20 µM; hJAK2 LANCE IC50/EC50 [8]: > 20 µM; hFLT3 LANCE IC50/EC50 [9]: > 20 µM; Hela CellCycMod PI 2N IC50/EC50 ([10]; assay number 14, 2N): > 10 µM; Hela CellCycMod PI 4N IC50/EC50 ([10]; assay number 16, 4N): > 10 µM; Hela CellCycMod PI MI IC50/EC50 ([10]; assay number 17, MI): > 10 µM; Hela CellCycMod PI Cell Number IC50/EC50 ([10]; assay number 18, cell number): 6.1389 µM; hp70S6K1 LANCE IC50/EC50 [11]: > 20 µM
CC(COc1ccccc1)NN (centres unmarked) [NCGC00183828-01] | > 10 | > 10 | 27.1817 | > 33.33 | > 40 | –
Cn1cc([S+](C)[O-])c(=O)c2ccc(F)cc21 (centres unmarked) [NCGC00183849-01] | > 10 | > 10 | > 40 | > 33.33 | > 40 | –
COC(=O)C(Cl)C(=O)OC [NCGC00249607-02] | > 10 | > 10 | 8.3651 | > 33.33 | > 40 | –
NC(=O)C1(N2CCCCC2)CCN(CCCN2c3ccccc3CCc3ccc(Cl)cc32)CC1 [NCGC00253595-01] | > 10 | 3.4001 | > 40 | 10.0823 | 18.348 | –
Cc1c(N)cccc1C(F)(F)F [NCGC00253636-01] | > 10 | > 10 | > 40 | > 33.33 | > 40 | –
Fc1cc(Br)ccc1CBr [NCGC00253679-01] | – | – | > 40 | > 33.33 | > 40 | –
O=C(CBr)Nc1ccc(Cl)cc1C(=O)c1ccccc1F [NCGC00253724-01] | > 10 | > 10 | > 40 | > 33.33 | > 40 | –
CC(C)CCCC(C)NCCC(C)C (centres unmarked) [NCGC00261980-01] | > 10 | > 10 | > 40 | > 33.33 | > 40 | –
CN1CCCC(CC2c3ccccc3Sc3ccccc32)C1.Cl (centres unmarked) [NCGC00273481-01] | > 10 | 8.6842 | – | – | – | Basal_Viability ATP Colo 320 IC50/EC50 [12]: > 20 µM; Basal_Viability ATP SW480 IC50/EC50 [13]: 4.7038 µM; mSTC-1 GLP1 Secretion IC50/EC50 [3]: > 40 µM; 5mMGluc_INS1E SecretionMod IC50/EC50 [4]: > 11.11 µM; hNCI-H716 GLP1 Secretion IC50/EC50 [5]: > 40 µM; Basal_Viability ATP HT-29 IC50/EC50 [14]: 6.4328 µM; Basal_Viability ATP HCT116 IC50/EC50 [15]: > 20 µM; Basal_Viability ATP SNU-C1 IC50/EC50 [16]: 15.0863 µM; Hela CellCycMod PI 2N IC50/EC50 [10]: > 10 µM; Hela CellCycMod PI 4N IC50/EC50 [10]: > 10 µM; Hela CellCycMod PI Cell Number IC50/EC50 [10]: > 10 µM; Hela CellCycMod PI MI IC50/EC50 [10]: > 10 µM; Basal_Viability ATP DLD-1 IC50/EC50 [17]: > 20 µM; GSK3b inh pretreated_Viability ATP HCT116 IC50/EC50 [18]: 8.6816 µM; Basal_Viability ATP RKO IC50/EC50 [19]: 3.4891 µM
